Laboratory results published in BigSolDB 2.1.

CC(=O)Nc1ccc(C(=O)O)cc1
Conditions | solubility (mole fraction)
in 1,4-dioxane, 288.15 K | 0.00281
in 1,4-dioxane, 293.15 K | 0.00326
in 1,4-dioxane, 298.15 K | 0.00345
in 1,4-dioxane, 303.15 K | 0.00394
in 1,4-dioxane, 308.15 K | 0.00446
in 1,4-dioxane, 313.15 K | 0.00491
in 1,4-dioxane, 318.15 K | 0.00577
in 1,4-dioxane, 323.15 K | 0.00639
in 1,4-dioxane, 328.15 K | 0.00698
in acetic acid, 293.15 K | 0.00404
in acetic acid, 298.15 K | 0.00486
in acetic acid, 303.15 K | 0.00554
in acetic acid, 308.15 K | 0.00625
in acetic acid, 313.15 K | 0.007
in acetic acid, 318.15 K | 0.00782
in acetic acid, 323.15 K | 0.00894
in acetic acid, 328.15 K | 0.00963
in acetic acid, 333.15 K | 0.0111
in acetone, 283.15 K | 0.00302
in acetone, 288.15 K | 0.00338
in acetone, 293.15 K | 0.00384
in acetone, 298.15 K | 0.00454
in acetone, 303.15 K | 0.00538
in acetone, 308.15 K | 0.00635
in acetone, 313.15 K | 0.00709
in acetone, 318.15 K | 0.00804
in acetone, 323.15 K | 0.00913
in acetonitrile, 283.15 K | 0.000293
in acetonitrile, 288.15 K | 0.000405
in acetonitrile, 293.15 K | 0.000433
in acetonitrile, 298.15 K | 0.000515
in acetonitrile, 303.15 K | 0.000653
in acetonitrile, 308.15 K | 0.000803
in acetonitrile, 313.15 K | 0.000943
in acetonitrile, 318.15 K | 0.00107
in acetonitrile, 323.15 K | 0.00132
in ethanol, 283.15 K | 0.00586
in ethanol, 288.15 K | 0.00674
in ethanol, 293.15 K | 0.0075
in ethanol, 298.15 K | 0.00834
in ethanol, 303.15 K | 0.00921
in ethanol, 308.15 K | 0.0101
in ethanol, 313.15 K | 0.0114
in ethanol, 318.15 K | 0.0126
in ethanol, 323.15 K | 0.014
in isobutanol, 283.15 K | 0.00351
in isobutanol, 288.15 K | 0.00456
in isobutanol, 293.15 K | 0.00519
in isobutanol, 298.15 K | 0.00601
in isobutanol, 303.15 K | 0.00696
in isobutanol, 308.15 K | 0.00822
in isobutanol, 313.15 K | 0.00912
in isobutanol, 318.15 K | 0.0103
in isobutanol, 323.15 K | 0.0113
in isopropanol, 283.15 K | 0.00546
in isopropanol, 288.15 K | 0.00663
in isopropanol, 293.15 K | 0.00713
in isopropanol, 298.15 K | 0.00796
in isopropanol, 303.15 K | 0.009
in isopropanol, 308.15 K | 0.00986
in isopropanol, 313.15 K | 0.011
in isopropanol, 318.15 K | 0.012
in isopropanol, 323.15 K | 0.0137
in methanol, 283.15 K | 0.006
in methanol, 288.15 K | 0.00663
in methanol, 293.15 K | 0.00738
in methanol, 298.15 K | 0.00839
in methanol, 303.15 K | 0.00941
in methanol, 308.15 K | 0.0103
in methanol, 313.15 K | 0.0115
in methanol, 318.15 K | 0.0126
in methanol, 323.15 K | 0.0141
in n-butanol, 283.15 K | 0.00486
in n-butanol, 288.15 K | 0.00552
in n-butanol, 293.15 K | 0.00599
in n-butanol, 298.15 K | 0.00722
in n-butanol, 303.15 K | 0.00812
in n-butanol, 308.15 K | 0.00974
in n-butanol, 313.15 K | 0.0108
in n-butanol, 318.15 K | 0.0122
in n-butanol, 323.15 K | 0.0136
in n-pentanol, 283.15 K | 0.00507
in n-pentanol, 288.15 K | 0.00554
in n-pentanol, 293.15 K | 0.00607
in n-pentanol, 298.15 K | 0.00659
in n-pentanol, 303.15 K | 0.00741
in n-pentanol, 308.15 K | 0.00844
in n-pentanol, 313.15 K | 0.00938
in n-pentanol, 318.15 K | 0.0115
in n-pentanol, 323.15 K | 0.0138
in n-propanol, 283.15 K | 0.0048
in n-propanol, 288.15 K | 0.00548
in n-propanol, 293.15 K | 0.00608
in n-propanol, 298.15 K | 0.007
in n-propanol, 303.15 K | 0.00792
in n-propanol, 308.15 K | 0.00883
in n-propanol, 313.15 K | 0.00986
in n-propanol, 318.15 K | 0.0113
in n-propanol, 323.15 K | 0.0127
in sec-butanol, 283.15 K | 0.00515
in sec-butanol, 288.15 K | 0.00602
in sec-butanol, 293.15 K | 0.00666
in sec-butanol, 298.15 K | 0.00796
in sec-butanol, 303.15 K | 0.00936
in sec-butanol, 308.15 K | 0.0107
in sec-butanol, 313.15 K | 0.0122
in sec-butanol, 318.15 K | 0.0136
in sec-butanol, 323.15 K | 0.015
